For 20 compounds, inhibition and IL-1β % inhibition results are on record in patent US7297700B2, “Bicycloheteroaryl compounds as P2X7 modulators and uses thereof” (Renovis, Inc., priority 2005, dated 2007).

For the first assay, the system named is IL-1β release from THP-1 cells. The assay is described as follows: IL-1β Release Assay (Alternate Method), THP-1 cells. The note with it: Homo sapiens; at 0.3 μM; THP-1 cells; read-out: IL-1β % inhibition. Type of assay: cell-based, human. A digest of the protocol:
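THP-1 cells differentiated 16 h with 100 ng/mL LPS plus 100 ng/mL IFN-γ, reprimed 2 h with 100 ng/mL LPS, pretreated 30 min with compound, then challenged 45 min with 250 uM BzATP (final). Supernatant IL-1β quantified by ELISA; percent inhibition from background-adjusted levels versus untreated cells.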
For orientation: inhibition means how much of the control response was suppressed. Consider `O=C(NCC12CC3CC(CC(C3)C1)C2)c1ncnc2c1CCN(Cc1ccc(F)cc1F)C2` [Compound 137], for which the inhibition at 0.3 µM fell in the range of 50 to 75%.
Same read-out and setting: the value for `O=C(CC12CC3CC(CC(C3)C1)C2)Nc1ncnc2c1CCN(Cc1ccc3c(c1)OCCO3)C2` [Compound 46] was > 75%; that for `CC(C)(C(=O)Nc1ncnc2c1CCN(C(=O)c1c(F)cccc1F)C2)C12CC3CC(CC(C3)C1)C2` [Compound 361] was 0 to 25%.

Staying with this assay, now noted: at 0.3 μM; THP-1 cells.
For the compound `O=C(CC12CC3CC(CC(C3)C1)C2)Nc1ncnc2c1CCN(S(=O)(=O)Cc1ccc(C(F)(F)F)cc1)C2` [Compound 183], the IL-1β % inhibition result is listed as “++ (compound exhibited 25-50% inhibition at 0.3 μM)”.
Still for that read-out and setting: the same measure for `O=C(CC12CC3CC(CC(C3)C1)C2)Nc1ncnc2c1CCN(C(=O)CC1CCCC1)C2` [Compound 263]: “++++ (compound exhibited 75% or greater inhibition at 0.3 μM)”.
The same measure, in the same setting: the value for `COc1ccc(CN2CCc3c(ncnc3NC(=O)CC34CC5CC(CC(C5)C3)C4)C2)cc1` [Compound 40] was “+ (compound exhibited 0-25% inhibition at 0.3 μM)”.
The same measure, in the same setting: the same measure for `CC12CC3CC(C)(C1)CC(CC(=O)Nc1ncnc4c1CCN(S(=O)(=O)Cc1ccccc1)C4)(C3)C2` [Compound 377]: “++++ (compound exhibited 75% or greater inhibition at 0.3 μM)”.
`O=C(CC12CC3CC(CC(C3)C1)C2)Nc1ncnc2c1CCN(Cc1cccc3c1OC(F)(F)O3)C2` [Compound 90]: the IL-1β % inhibition entry is “+ (compound exhibited 0-25% inhibition at 0.3 μM)”.
On the same count and under the same terms, the value for `CC(C)(C(=O)Nc1ncnc2c1CCN(C(=O)c1ccc(Cl)c(Cl)c1)C2)C12CC3CC(CC(C3)C1)C2` [Compound 360] was “+ (compound exhibited 0-25% inhibition at 0.3 μM)”; that for `CC12CC3CC(C)(C1)CC(CC(=O)Nc1ncnc4c1CCN(Cc1ccc(F)cc1F)C4)(C3)C2` [Compound 374] was “++ (compound exhibited 25-50% inhibition at 0.3 μM)”.
Still for that read-out and setting: the value for `O=C(CC12CC3CC(CC(C3)C1)C2)Nc1ncnc2c1CCN(C(=O)c1ccccc1C(F)(F)F)C2` [Compound 270] was “+ (compound exhibited 0-25% inhibition at 0.3 μM)”; that for `O=C(CC12CC3CC(CC(C3)C1)C2)Nc1ncnc2c1CCN(Cc1ccc(F)cc1F)C2` [Compound 47] was “++++ (compound exhibited 75% or greater inhibition at 0.3 μM)”; that for `Cc1cc(S(=O)(=O)N2CCc3c(ncnc3NC(=O)CC34CC5CC(CC(C5)C3)C4)C2)c(C(F)(F)F)o1` [Compound 159] was “+ (compound exhibited 0-25% inhibition at 0.3 μM)”.
Take `O=C(CC12CC3CC(CC(C3)C1)C2)Nc1ncnc2c1CCN(C(=O)C1COc3ccccc3C1)C2` (centres unmarked) [Compound 313]: the IL-1β % inhibition entry was “++++ (compound exhibited 75% or greater inhibition at 0.3 μM)”.
Same read-out and setting: the value for `O=C(CC12CC3CC(CC(C3)C1)C2)Nc1ncnc2c1CCN(C(=O)c1ccnc(Cl)c1)C2` [Compound 298] was “++++ (compound exhibited 75% or greater inhibition at 0.3 μM)”; that for `O=C(CC12CC3CC(CC(C3)C1)C2)Nc1ncnc2c1CCN(C(=O)Cc1ccc(F)cc1)C2` [Compound 241] was “+++ (compound exhibited 50-75% inhibition at 0.3 μM)”.

Staying with this assay, now noted: at 0.3 μM; THP-1 cells, BzATP-stimulated.
With `O=C(Nc1ncnc2c1CCN(S(=O)(=O)c1ccccc1OC(F)(F)F)C2)C12CC3CC(CC(C3)C1)C2` [Compound 532], the IL-1β % inhibition entry is “+ (compound exhibited 0-25% inhibition at 0.3 μM)”.
The same measure, in the same setting: the same measure for `O=C(c1ccc2ccccc2n1)N1CCc2c(ncnc2NC(=O)C23CC4CC(CC(C4)C2)C3)C1` [Compound 471]: “++ (compound exhibited 25-50% inhibition at 0.3 μM)”; for `O=C(COc1ccc(Cl)cc1)N1CCc2c(ncnc2NC(=O)C23CC4CC(CC(C4)C2)C3)C1` [Compound 436]: “++ (compound exhibited 25-50% inhibition at 0.3 μM)”; for `O=C(Nc1ncnc2c1CCN(S(=O)(=O)Cc1ccc(Cl)cc1)C2)C12CC3CC(CC(C3)C1)C2` [Compound 522]: “+++ (compound exhibited 50-75% inhibition at 0.3 μM)”.
